Consider eight compounds from ChEMBL document CHEMBL1201862, “PubChem BioAssay data set” (2004).

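Assay format: 96-well plates, 48-hour exposure. GI50: concentration for 50% inhibition of growth.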 Activity calls are given as the source filed them. Rule as the data show it: active = GI50 up to about 1.1 µM and inactive = higher. A value given as a limit tells only on which side of the number the result lay.

Among the test systems are EKVX; HL-60; HT-29; K562; KM12; MOLT-4; NCI-H23; NCI-H460; RPMI-8226; SF-268; SF-295; SK-MEL-5; SK-OV-3; SN12C; SNB-19; SW-620; UACC-257; UO-31; A549; SNB-75.
What all share (assay): NCI tumour cell line growth inhibition, 48 h

Turning to `Cc1ccc(-c2cc(-c3ccco3)c(C#N)c(=O)n2C2OC(CO)C(O)C(O)C2O)cc1` (stereo not drawn), the GI50 in the assay on EKVX is > 100 µM (inactive); in the assay with HL-60 it was > 100 µM (inactive); in the assay with HT-29, > 100 µM (inactive); with K562, > 100 µM (inactive); in the assay with KM12, 84.5 µM (inactive); in the assay with MOLT-4 it was > 100 µM (inactive). For the same compound, the GI50 in the assay with NCI-H23 was 37.1 µM (inactive); in the assay on NCI-H460 it was 37.1 µM (inactive); with RPMI-8226 it was 73.3 µM (inactive); in the assay on SF-268, 53 µM (inactive); in the assay on SF-295, 33.6 µM (inactive); in the assay on SK-MEL-5, 22 µM (inactive). The GI50 in the assay on SK-OV-3 is 28.7 µM (inactive); in the assay with SN12C it was 46.3 µM (inactive); in the assay on SNB-19, 68.2 µM (inactive); in the assay on SW-620, 93.8 µM (inactive); with UACC-257, 58.5 µM (inactive); with UO-31 it was 59.6 µM (inactive).
Consider `COc1ccc(-c2cc(-c3cc(OC)c(OC)c(OC)c3)cc(-c3cc4ccccc4oc3=O)n2)cc1`, for which the GI50 is 15 µM (inactive) in the assay on A549; 10.9 µM (inactive) in the assay on EKVX; > 100 µM (inactive) in the assay with HL-60; 9.4 µM (inactive) in the assay on HT-29; 30.1 µM (inactive) with K562; 12.6 µM (inactive) with KM12. In addition, the GI50 is > 100 µM (inactive) in the assay with MOLT-4; 7.87 µM (inactive) with NCI-H23; 5.78 µM (inactive) with NCI-H460; 3.45 µM (inactive) in the assay on SF-268; 4.99 µM (inactive) with SF-295; 5.97 µM (inactive) with SK-MEL-5. Further, the GI50 was 3.83 µM (inactive) in the assay with SK-OV-3; 8.93 µM (inactive) in the assay with SN12C; 10.2 µM (inactive) in the assay with SNB-19; 2.51 µM (inactive) in the assay with SNB-75; 25.2 µM (inactive) in the assay with SW-620; 16.7 µM (inactive) with UACC-257. In addition, in the assay with UO-31, the GI50 was 8.28 µM (inactive).
For the compound `COc1ccc2c(c1)CCN=C2Cc1cc(OC)c(OC)cc1CCCl`, the GI50 with A549 is 96.4 µM (inactive); with EKVX, > 100 µM (inactive); in the assay with HT-29 it was 26.9 µM (inactive); in the assay with K562, 81.1 µM (inactive); in the assay with KM12 it was 33.3 µM (inactive); with MOLT-4, 54.8 µM (inactive). The GI50 with NCI-H23 is 52 µM (inactive); with NCI-H460, 69.8 µM (inactive); with RPMI-8226 it was 55 µM (inactive); with SF-268 it was 48.6 µM (inactive); with SF-295, 30.9 µM (inactive); in the assay on SK-MEL-5 it was 17.5 µM (inactive). For the same compound, the GI50 in the assay on SK-OV-3 was > 100 µM (inactive); in the assay on SN12C it was 48.4 µM (inactive); with SNB-19, 97.1 µM (inactive); with SNB-75, > 100 µM (inactive); in the assay on SW-620, > 100 µM (inactive); in the assay with UACC-257 it was 45.4 µM (inactive). Besides, the GI50 in the assay with UO-31 is 29.2 µM (inactive).
As to `N#CC1(C#N)C(=O)c2ccncc2C1=O`, the GI50 with A549, with EKVX, in the assay with HL-60, with HT-29, in the assay on K562 and in the assay with KM12 was > 100 µM (inactive) throughout. The GI50 with NCI-H23, in the assay on NCI-H460, in the assay with RPMI-8226, with SF-268, in the assay on SF-295 and in the assay with SK-MEL-5 was > 100 µM (inactive) each time. Moreover, the GI50 in the assay on SK-OV-3, with SN12C, in the assay on SNB-19, in the assay with SNB-75, in the assay with SW-620 and in the assay with UACC-257 was > 100 µM (inactive) throughout. In the assay on UO-31, the GI50 is > 100 µM (inactive).
`CN1NC(c2ccccc2)=C(C#N)C(=O)CC1c1ccc(Br)cc1` (stereo not drawn): the GI50 with A549 is 32.2 µM (inactive); in the assay with HL-60, 29 µM (inactive); in the assay on HT-29, 28.9 µM (inactive); with KM12 it was 25.2 µM (inactive); in the assay on NCI-H23, 56.4 µM (inactive); with NCI-H460 it was 33.3 µM (inactive). Besides, the GI50 in the assay on RPMI-8226 is 37.8 µM (inactive); with SF-268 it was 35.9 µM (inactive); in the assay on SF-295 it was 11.9 µM (inactive); in the assay on SK-MEL-5, 14.2 µM (inactive); with SK-OV-3 it was 31.8 µM (inactive); in the assay with SN12C it was 44.9 µM (inactive). In addition, the GI50 was 28.8 µM (inactive) in the assay with SNB-19, 16.6 µM (inactive) in the assay with SNB-75, 25.6 µM (inactive) with SW-620 and 69.5 µM (inactive) in the assay with UACC-257.
Regarding `O=C1NC2=C(CCCC/C2=N\O)C12CCCCC2`, the GI50 in the assay on A549 was > 100 µM (inactive); in the assay with EKVX, > 100 µM (inactive); in the assay with HL-60 it was 32.7 µM (inactive); with HT-29, > 100 µM (inactive); with K562, > 100 µM (inactive); with KM12 it was > 100 µM (inactive). Moreover, the GI50 with MOLT-4 was 57.8 µM (inactive); with NCI-H23, > 100 µM (inactive); in the assay with NCI-H460, > 100 µM (inactive); in the assay on SF-268, > 100 µM (inactive); in the assay on SF-295 it was > 100 µM (inactive); in the assay with SK-OV-3, > 100 µM (inactive). Further, the GI50 in the assay on SN12C, with SNB-19, in the assay with SNB-75, in the assay with SW-620, with UACC-257 and in the assay with UO-31 was > 100 µM (inactive) in each case.
Regarding `C=C(C)[C@@H]1CCC2=C[C@H](CC(C)=CC3=CC(C)=C(O3)[C@@H]1OC)OC2=O`, the GI50 with A549 was > 100 µM (inactive); in the assay on EKVX, 59.2 µM (inactive); in the assay with HL-60, > 100 µM (inactive); in the assay with K562, > 100 µM (inactive); in the assay with KM12, > 100 µM (inactive); in the assay with MOLT-4 it was > 100 µM (inactive). Further, the GI50 was > 100 µM (inactive) in the assay on NCI-H460; > 100 µM (inactive) in the assay on RPMI-8226; 33.7 µM (inactive) with SF-268; 21 µM (inactive) with SF-295; > 100 µM (inactive) in the assay with SK-MEL-5; > 100 µM (inactive) in the assay on SN12C. The GI50 in the assay with SNB-19 is 37.2 µM (inactive); in the assay with SNB-75 it was 63.5 µM (inactive); in the assay on SW-620, > 100 µM (inactive); with UACC-257, > 100 µM (inactive); in the assay with UO-31 it was > 100 µM (inactive).
In the case of `CCOC(=O)c1ccc(N(CCOS(=O)(=O)c2ccc(C)cc2)CCOS(=O)(=O)c2ccc(C)cc2)cc1`, the GI50 in the assay on A549 was 8.91 µM (inactive); with EKVX it was > 100 µM (inactive); with HT-29 it was > 100 µM (inactive); in the assay with K562 it was > 100 µM (inactive); in the assay on KM12, > 100 µM (inactive); in the assay with MOLT-4, 2.7 µM (inactive). Also, the GI50 in the assay with NCI-H23 was > 100 µM (inactive); in the assay on NCI-H460, 4.66 µM (inactive); with RPMI-8226 it was 10 µM (inactive); in the assay with SF-268, > 100 µM (inactive); with SF-295, > 100 µM (inactive); in the assay with SK-MEL-5, > 100 µM (inactive). The GI50 was < 0.01 µM (active) with SN12C; > 100 µM (inactive) in the assay with SNB-19; 1.95 µM (inactive) with SW-620; > 100 µM (inactive) with UACC-257; 12.8 µM (inactive) in the assay with UO-31.
